Test results taken from the supplement of paper PMC10307832.

Tests used:
Test in all cases: relative viability (nuclei count vs DMSO), 5 days (fraction); higher = more cells survive
Avagacestat + Luminespib = compound: NC(=O)[C@@H](CCC(F)(F)F)N(Cc1ccc(-c2ncon2)cc1F)S(=O)(=O)c1ccc(Cl)cc1 [Avagacestat] + CCNC(=O)c1noc(-c2cc(C(C)C)c(O)cc2O)c1-c1ccc(CN2CCOCC2)cc1 [Luminespib] (partner 0.01 µM)
Summary of the method: (§1)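 Relative viability divides the nuclei count in treated wells by that in vehicle wells. Lung cancer cell lines were seeded in 1536-well plates, dosed by pin tool the next day, and fixed and stained after 5 days in one step with final 0.05% Triton X-100, 1% formaldehyde and 1 ug/ml Hoechst. Dosing was a single drug or a fixed anchor-drug dose plus five library-drug doses (not always all listed) in √10 steps, and values are medians of duplicate plates imaged at 4×.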

Avagacestat + Bortezomib = compound: NC(=O)[C@@H](CCC(F)(F)F)N(Cc1ccc(-c2ncon2)cc1F)S(=O)(=O)c1ccc(Cl)cc1 [Avagacestat] + CC(C)C[C@H](NC(=O)[C@H](Cc1ccccc1)NC(=O)c1cnccn1)B(O)O [Bortezomib] (partner 0.002 µM)
Summary of the method: as §1

Avagacestat + Navitoclax = compound: NC(=O)[C@@H](CCC(F)(F)F)N(Cc1ccc(-c2ncon2)cc1F)S(=O)(=O)c1ccc(Cl)cc1 [Avagacestat] + CC1(C)CCC(c2ccc(Cl)cc2)=C(CN2CCN(c3ccc(C(=O)NS(=O)(=O)c4ccc(N[C@H](CCN5CCOCC5)CSc5ccccc5)c(S(=O)(=O)C(F)(F)F)c4)cc3)CC2)C1 [Navitoclax] (partner 0.5 µM)
Summary of the method: as §1

Avagacestat + Dasatinib = compound: NC(=O)[C@@H](CCC(F)(F)F)N(Cc1ccc(-c2ncon2)cc1F)S(=O)(=O)c1ccc(Cl)cc1 [Avagacestat] + Cc1nc(Nc2ncc(C(=O)Nc3c(C)cccc3Cl)s2)cc(N2CCN(CCO)CC2)n1 [Dasatinib] (partner 0.075 µM)
Summary of the method: as §1

| Cell Line | relative viability (Avagacestat + Luminespib; first compound 0.08 µM) | relative viability (Avagacestat + Luminespib; first compound 0.253 µM) | relative viability (Avagacestat + Luminespib; first compound 0.8 µM) | relative viability (Avagacestat + Luminespib; first compound 8 µM) | relative viability (Avagacestat + Bortezomib; first compound 0.08 µM) | relative viability (Avagacestat + Bortezomib; first compound 0.253 µM) | relative viability (Avagacestat + Bortezomib; first compound 0.8 µM) | relative viability (Avagacestat + Bortezomib; first compound 2.53 µM) | relative viability (Avagacestat + Bortezomib; first compound 8 µM) | relative viability (Avagacestat + Navitoclax; first compound 0.08 µM) | relative viability (Avagacestat + Navitoclax; first compound 0.253 µM) | relative viability (Avagacestat + Navitoclax; first compound 0.8 µM) | relative viability (Avagacestat + Navitoclax; first compound 2.53 µM) | relative viability (Avagacestat + Navitoclax; first compound 8 µM) | relative viability (Avagacestat + Dasatinib; first compound 0.08 µM) | relative viability (Avagacestat + Dasatinib; first compound 0.253 µM) | relative viability (Avagacestat + Dasatinib; first compound 0.8 µM) | relative viability (Avagacestat + Dasatinib; first compound 2.53 µM) | relative viability (Avagacestat + Dasatinib; first compound 8 µM) | relative viability (Avagacestat + Luminespib; first compound 2.53 µM) |
| --- | --- | --- | --- | --- | --- | --- | --- | --- | --- | --- | --- | --- | --- | --- | --- | --- | --- | --- | --- | --- |
| PC-14 | 0.151 | 0.162 | 0.162 | 0.176 | 1.12 | 1.12 | 0.848 | 0.785 | 0.77 | 1.19 | 1.19 | 1.12 | 0.97 | 0.899 | 0.214 | 0.182 | 0.169 | 0.13 | 0.207 | – |
| RERF-LC-KJ | 1.72 | 1.39 | 1.36 | 1.13 | 1.17 | 1.37 | 1.16 | 1.04 | 1.02 | 1.11 | 0.878 | 0.874 | 0.982 | 1.1 | 0.974 | 0.915 | 0.776 | 0.748 | 0.664 | 1.35 |
| SK-LU-1 | 0.223 | 0.189 | 0.218 | 0.225 | 1.46 | 1.21 | 1.32 | 1.13 | 0.737 | 1.11 | 1.08 | 1 | 0.706 | 0.93 | 0.172 | 0.138 | 0.18 | 0.142 | 0.189 | 0.201 |
| SW 1573 | 0.341 | 0.257 | 0.218 | 0.214 | 1.26 | 1.03 | 1.19 | 0.967 | 0.922 | 1.3 | 0.97 | 0.989 | 1.04 | 0.974 | 0.515 | 0.593 | 0.523 | 0.565 | 0.279 | 0.196 |
| UMC-11 | 1.18 | 1.35 | 1.1 | 1.14 | 0.915 | 0.563 | 0.722 | 0.749 | 0.414 | 0.324 | 0.316 | 0.321 | 0.286 | 0.299 | 0.633 | 0.598 | 0.647 | 0.541 | 0.473 | 1.16 |
